Measurements reported in PubChem BioAssay AID2060899 (Molecular Pharmacology Branch, DTP, NCI, 2025).

Test system: 565726-208-R1-J5-PDC complex spheroids, growth inhibition
Experiment: Anticancer human tumor 565726-208-R1-J5-PDC patient-derived pancreatic adenocarcinoma cell line growth inhibition [RAS]
Settings: for IC50: curve of first compound; for viability, T/C: stronger effect = lower value
Description: RAS pathway inhibitors in Combinations in Complex Spheroids
A high-throughput screen of multi-cell type tumor spheroids was designed to identify active combinations of RAS pathway inhibitors and targeted small molecules. Complex spheroids include a stromal component modeled by human endothelial cells (HUVEC) and fibroblasts modeled by human mesenchymal stem cells (MSCs). The concentration ranges selected for each drug and investigational agent were based upon clinically achievable concentrations if the clinical Cmax of the agent was known.
Compounds. The drugs and investigational agents: abemaciclib (NSC768073), cobimetinib (NSC768068), divarasib (GDC6063, NSC841802), docetaxel (NSC628503), GDC-1971 (RLY-1971, NSC841576), gemcitabine (NSC613327), inavolisib (NSC800729), ipatasertib (NSC767898), KB-0742 (NSC834161), MRTX-1133 (NSC836407), osimertinib (NSC779217), RMC-4630 (NSC839698), RMC-6236 (NSC851965), RMC-6291 (NSC852671), Ro-3306 (NSC812927), sapanisertib (NSC764658), SN-38 (NSC673596), staurosporine (NSC755774), SY5609 (NSC837396), and tovorafenib (DAY101, NSC766906), were obtained from the National Cancer Institute (NCI) Developmental Therapeutics Program Chemical Repository. The FDA-approved anticancer drug set is available from the NCI Developmental Therapeutics Program. […] The stock solutions were prepared in dimethyl sulfoxide (DMSO, Sigma-Aldrich, St. Louis, MO, cat. D2650) at 800-fold the tested concentration and stored at -70 degrees C prior to their use. All drugs and investigational agents were tested over a range starting from a high concentration at or near the clinical Cmax and decreasing in half-log increments. If the clinical Cmax for an agent had not been determined, the highest concentration tested was 10 microM.
Cell Culture. All cells were maintained in an incubator at 37 degrees C and 5% CO2 with 95% humidity. The PDC lines were cultured according to standard operating procedures established by the NCI PDMR. All PDCs were thawed and cultured in Matrigel-coated flasks prepared with a working solution of 1X Ham's F-12 nutrient mix, without supplementation (Invitrogen, Waltham, MA, cat. 11765054), 100 U/mL penicillin-streptomycin (Invitrogen, cat. 15140122), and 2.5% Matrigel (Corning Inc., Corning, NY, cat. 354248) for the first three passages. The 362531-283-R-J2-PDC and 782815-120-R-J1-PDC lines were cultured in 6C/Colon 1B media, which includes advanced DMEM/F-12 (Thermo Fisher Scientific, cat. 12634028), 10 mM HEPES (Thermo Fisher Scientific, cat. 15630080), 1X GlutaMAX supplement (Thermo Fisher Scientific, cat. 35050061), 0.1 mg/mL primocin (InvivoGen, San Diego, CA, cat. ant-pm-2), 10% defined fetal bovine serum, heat inactivated (HyClone Laboratories Inc., Logan, UT, cat. SH30070.03HI), 50% L-WRN conditioned media (ATCC, cat. CRL-3276), 1.25 mM N-Acetyl-L-cysteine (Sigma-Aldrich, cat. A9165), 10 mM nicotinamide (Sigma-Aldrich, cat. N0636), 1X B-27 supplement (Thermo Fisher Scientific, cat. 17504044), 1X N-2 supplement (Thermo Fisher Scientific, cat. 17502048), 50 ng/mL human EGF (Thermo Fisher Scientific, cat. PHG0311), and 10 microM Y-27632 dihydrochloride (Tocris Bioscience, cat. 1254). The K12877-001-R-J1-PDC line was cultured in 6I media, which includes all 6C/Colon 1B media plus 10 ng/mL human FGF-10 (PeproTech, cat. 100-26), 1 ng/mL human FGF-2 (PeproTech, cat. 100-18B), 1 µM prostaglandin E2 (Tocris Bioscience, cat. 2296), […] hydrocortisone (Sigma-Aldrich, cat. H4001), and […] bovine insulin (Sigma-Aldrich, cat. I6634). The K86415-001-R-J1-PDC line was cultured in 6D media, which includes all 6C/Colon 1B media components minus the L-WRN conditioned media. The 485176-168-R4-J1-PDC was cultured in PANC media, which includes all 6C/Colon 1B media plus 100 ng/mL human FGF-10 (PeproTech, cat. 100-26), 500 nM SB-431542 (Selleckchem, cat. S1067), and 10 nM gastrin (Tocris Bioscience, cat. 3006). […]
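Further: spheroids exposed to compounds for seven days before readout.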
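Wherever viability, T/C is given: 100% = DMSO vehicle control viability.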

With `CC(C)NCC(C(=O)N1CCN(c2ncnc3c2C(C)CC3O)CC1)c1ccc(Cl)cc1` (configuration not stated) + C#Cc1c(F)ccc2cc(O)cc(-c3ncc4c(N5CC6CCC(C5)N6)nc(OCC56CCCN5CC(F)C6)nc4c3F)c12 the IC50 (second compound 0.0316 µM) was greater than 10 µM, the IC50 (second compound 0.1 µM) was greater than 10 µM and the IC50 (second compound 0.316 µM) was greater than 10 µM. For the same molecule, the IC50 (second compound 1 µM) was greater than 10 µM, the IC50 (second compound 3.16 µM) was 0.473 µM and the IC50 (second compound 10 µM) was 1.21 µM. It also gave a viability, T/C (second compound 0.0316 µM, first compound 0.0316 µM) of 85.7%, a viability, T/C (second compound 0.0316 µM, first compound 0.1 µM) of 129% and a viability, T/C (second compound 0.0316 µM, first compound 0.316 µM) of 96%. For the same molecule, the viability, T/C (second compound 0.0316 µM, first compound 1 µM) was 76%, the viability, T/C (second compound 0.0316 µM, first compound 3.16 µM) was 80.2% and the viability, T/C (second compound 0.0316 µM, first compound 10 µM) was 91.4%. It also gave a viability, T/C (second compound 0.1 µM, first compound 0.0316 µM) of 108%, a viability, T/C (second compound 0.1 µM, first compound 0.1 µM) of 114% and a viability, T/C (second compound 0.1 µM, first compound 0.316 µM) of 80.3%. It also gave a viability, T/C (second compound 0.1 µM, first compound 1 µM) of 77.3%, a viability, T/C (second compound 0.1 µM, first compound 3.16 µM) of 88% and a viability, T/C (second compound 0.1 µM, first compound 10 µM) of 86%. For the same molecule, the viability, T/C (second compound 0.316 µM, first compound 0.0316 µM) was 104%, the viability, T/C (second compound 0.316 µM, first compound 0.1 µM) was 117% and the viability, T/C (second compound 0.316 µM, first compound 0.316 µM) was 78.1%. For the same molecule, the viability, T/C (second compound 0.316 µM, first compound 1 µM) was 84.9%, the viability, T/C (second compound 0.316 µM, first compound 3.16 µM) was 71.9% and the viability, T/C (second compound 0.316 µM, first compound 10 µM) was 80.5%. It also gave a viability, T/C (second compound 1 µM, first compound 0.0316 µM) of 109%, a viability, T/C (second compound 1 µM, first compound 0.1 µM) of 125% and a viability, T/C (second compound 1 µM, first compound 0.316 µM) of 76.5%. It also gave a viability, T/C (second compound 1 µM, first compound 1 µM) of 59.5%, a viability, T/C (second compound 1 µM, first compound 3.16 µM) of 63.4% and a viability, T/C (second compound 1 µM, first compound 10 µM) of 52.5%. For the same molecule, the viability, T/C (second compound 3.16 µM, first compound 0.0316 µM) was 101%, the viability, T/C (second compound 3.16 µM, first compound 0.1 µM) was 83.8% and the viability, T/C (second compound 3.16 µM, first compound 0.316 µM) was 50.7%. For the same molecule, the viability, T/C (second compound 3.16 µM, first compound 1 µM) was 48.4%, the viability, T/C (second compound 3.16 µM, first compound 3.16 µM) was 38.5% and the viability, T/C (second compound 3.16 µM, first compound 10 µM) was 34.7%. The viability, T/C (second compound 10 µM, first compound 0.0316 µM) was 67.8%, the viability, T/C (second compound 10 µM, first compound 0.1 µM) was 76.6% and the viability, T/C (second compound 10 µM, first compound 0.316 µM) was 57.6%. For the same molecule, the viability, T/C (second compound 10 µM, first compound 1 µM) was 47.1%, the viability, T/C (second compound 10 µM, first compound 3.16 µM) was 44.5% and the viability, T/C (second compound 10 µM, first compound 10 µM) was 21.1%.
